# Patent US20100210611A1, “COMBINATION THERAPY” (priority 2007, published 2010)
# Several values for one entry are separate records, joined by “and”; a condition that tells them apart may be missing. Equal values may be shown once.
# Tests used:
# Format in all cases: physicochemical
# [1] = Blend uniformity (individual capsule assay); details: HPLC, Mean ± RSD
# Method: To assess blend uniformity, capsules from each blend were opened and rinsed with methanol. The solution was sonicated for 5 minutes at room temperature, centrifuged at 3000 rpm for 15 minutes then assayed using a UV-VIS spectrophotometer at a wavelength of 346 nm. […]
# To assess blend uniformity, the blend was sampled randomly from the glass vial. The drugs were extracted analogous to that described in section Blend Uniformity for Example 1. However, the content of montelukast acid and mometasone furoate were analyzed by High Performance Liquid Chromatography (HPLC) employing a phenyl column with a controlled temperature of 50° C., a mixture of water containing 0.2% trifluoroacetic acid (TFA) and acetonitrile containing 0.2% TFA (53:47) as the mobile phase at a flow rate 2 ml/min and UV-detection at 248 nm.
# The blend uniformity was assessed in a manner analogous to that described in the Blend Uniformity section in Example 4, except the content of montelukast acid and ciclesonide were analyzed by High Performance Liquid Chromatography (HPLC) employing a phenyl column with a controlled temperature of 50° C., a mixture of water containing 0.2% trifluoroacetic acid (TFA) and acetonitrile containing 0.2% TFA (40:60) at a flow rate 2 ml/min and UV-detection at 248 nm.
# [2] = Dose uniformity, Dosage Unit Sampling Apparatus (DUSA), USP <601>; details: Spinhaler; for Total recovered / amount in Device + Capsule: listed as MON; for amount in Device + Capsule: nominal 1000 μg MON, 400 μg MOM
# Method: Dose uniformity was determined using Apparatus B (Dosage Unit Sampling Apparatus—DUSA) at a flow rate of 100 L/min (test described in United States Pharmacopoeia (USP) 27 Chapter <601>). The USP recommends selecting a flow rate that creates a pressure drop of 4 kPa across the inhaler. With the Spinhaler, a 4 kPa pressure drop could not be achieved even at the maximum flow rate of 100 L/min. Based on the recommendations of Byron, et al., a flow rate of 100 L/min was selected since the Spinhaler is a low resistance device. See Michael Hindle and Peter R. Byron, “Dose emissions from marketed dry powder inhalers”, International Journal of Pharmaceutics 116 (1995) 169-177. The test was run for 2.4 seconds in order to pull 4 L of air. After a shot had been delivered, all pieces of the DUSA including the mouthpiece adapter were rinsed with solvent. To determine the amount of drug retained in the inhaler, all pieces of the inhaler were rinsed with solvent including the interior of the capsule. The samples were then assayed using the UV-Vis spectrophotometer.
# Shot weight was obtained by measuring the weight loss due to the actuation of the device. The device was tared, a “shot” was wasted in the DUSA and the device was re-weighed to obtain the delivered shot weight. Dose and shot weight were deemed acceptable if they were within 75% to 125% of the theoretical values (USP <601>).
# (§1) Dose Uniformity (DU) was performed according to USP Chapter <601> by using DUSA Apparatus B with the Spinhaler® device which is analogous to that described in section Dose Uniformity for Example 1. However, the HPLC was used to analyze the content of the drugs as described in the Blend Uniformity in this example.
# as §1, with “Uniformity” for “Uniformity (DU)”, “device and in a manner” for “device which is”, “Uniformity in” for “Uniformity for”, “Example 4, except” for “Example 1. However,”
# [3] = Aerodynamic particle size distribution, Andersen cascade impaction (ACI); details: Spinhaler; for MMAD: cutoff diameter based on airflow rate of 28.3 L/min; for amount in ACI: including mouthpiece adapter
# Text: The Andersen cascade impaction (ACI) (Apparatus 3) was the device used to determine the aerodynamic size distribution. The impaction provided in vitro measurements of the fraction of the aerosol that has the potential to reach the alveolar region of the lung. This value is represented by the portion of particles detected below plate 2. The impaction was operated at the flow rate and test time according to the method described in USP <601>. Because the Spinhaler® is a low resistance device, it is difficult to achieve a pressure drop of 4 kPa, an adjustment of the air flow rate at the intake of the flow control was performed, as discussed above. Each impaction plate was coated with silicone grease (316 Dow Corning) to prevent particles from bouncing off the plates and returning to the air stream. All stages were used since the test flow rate was less than 60 L/min. All pieces of the impaction including the inhaler and capsule were rinsed with solvent, diluted to suitable volumes, sonicated, centrifuged and assayed using the UV-VIS spectrophotometer. The respirable portion was quantified by the in vitro fine particle fraction and fine particle mass. Dose uniformity and cascade impaction tests were carried out at controlled temperature (20-25° C.) and humidity (50% RH). […]
# Aerodynamic size distribution was performed according to USP Chapter <601> by using ACI Apparatus 3 with the Spinhaler® device analogous to that described in section Aerodynamic Particle Size Distribution for Example 1. However, the HPLC was used to analyze the content of the drugs as described in the Blend Uniformity in this example.
# Aerodynamic size distribution was performed according to USP Chapter <601> by using ACI Apparatus 3 with the Spinhaler® device in a manner analogous to that described in section Aerodynamic Particle Size Distribution in Example 4. The content of the drugs were analyzed as described in the Blend Uniformity in this example.
# [4] = Example 4 blend, flow 61.5 L/min for 3.9 sec
# [5] = Example 4 blend, flow 62.3 L/min for 3.9 sec
# [6] = Example 4 blend, flow 62.8 L/min for 3.8 sec
# [7] = Example 4 blend, blend with mometasone furoate
# [8] = Example 5 blend, blend with ciclesonide
smiles,measurement,setting,value
"CC(C)(O)c1ccccc1CC[C@@H](SCC1(CC(=O)O)CC1)c1cccc(/C=C/c2ccc3ccc(Cl)cc3n2)c1 [Montelukast Acid, montelukast acid]",Amount Recovered (μg/Capsule),"[1]; Example 4 blend (montelukast acid 4%, mometasone furoate 1.6%)",940.4 µg and 907.0 µg and 953.9 µg
same,Amount Recovered (μg/Capsule),"[1]; Example 4 blend (montelukast acid 4%, mometasone furoate 1.6%), mean",933.8 ± 2.6 µg
same,"Amount Recovered, %",[1]; Example 4 blend,91.4% and 93.0% and 93.9%
same,"Amount Recovered, %","[1]; Example 4 blend, mean",92.8 ± 1.4%
same,Amount Recovered (μg/Capsule),"[1]; Example 5 blend (montelukast acid 4%, ciclesonide 0.64%)",943.3 µg and 928.8 µg and 997.5 µg
same,Amount Recovered (μg/Capsule),"[1]; Example 5 blend (montelukast acid 4%, ciclesonide 0.64%), mean of three capsules",956.6 ± 3.4 µg
same,"Amount Recovered, %",[1]; Example 5 blend,94.3% and 92.9% and 99.8%
same,"Amount Recovered, %","[1]; Example 5 blend, mean of three capsules",95.7 ± 3.4%
same,"DU based on nominal dose, % (Device + Capsule)",[2]; Example 4 blend,*46.6%
same,"DU based on nominal dose, % (printed in Adapter + Filter column)",[2]; Example 4 blend,49.3%
same,"DU based on total recovered, % (Device + Capsule)",[2]; Example 4 blend,**48.6%
same,"DU based on total recovered, % (printed in Adapter + Filter column)",[2]; Example 4 blend,51.4%
same,Total recovered,[2]; [4],952.06 µg and 949.00 µg and 958.48 µg
same,Total recovered,[2]; [5],983.22 µg and 979.15 µg
same,Total recovered,[2]; [6],937.91 µg and 949.52 µg
same,amount in Device + Capsule,[2]; [4],465.70 µg and 463.98 µg and 465.53 µg
same,amount in Device + Capsule,[2]; [5],462.40 µg and 459.39 µg
same,amount in Device + Capsule,[2]; [6],468.24 µg and 473.48 µg
same,"DU based on nominal dose, % (Device + Capsule)",[2]; Example 5 blend,*44.5%
same,"DU based on nominal dose, % (printed in Adapter + Filter column)",[2]; Example 5 blend,47.8%
same,"DU based on total recovered, % (Device + Capsule)",[2]; Example 5 blend,**48.2%
same,"DU based on total recovered, % (printed in Adapter + Filter column)",[2]; Example 5 blend,51.8%
same,FPF,[3]; Example 4 blend,29%
same,FPD,[3]; [7],126.1 µg and 145.7 µg and 118.7 µg
same,FPF,[3]; [7],28.6% and 28.4% and 29.9%
same,GSD,[3]; [7],2.1 and 1.4
same,Total recovered,[3]; [7],953 µg and 962 µg and 921 µg
same,amount in inhaler,[3]; [7],512 µg and 450 µg and 524 µg
same,MMAD,[3]; Example 4 blend,4.5 μm
same,MMAD,[3]; [7],4.6 μm and 4.4 μm
same,MMAD,"[3]; Example 4 blend, mean",4.5 μm
same,amount in ACI,[3]; [7],441 µg and 513 µg and 397 µg
same,amount in ACI,"[3]; Example 4 blend, mean",450 µg
same,FPD,"[3]; Example 4 blend, mean",130.2 µg
same,FPF,"[3]; Example 4 blend, mean",29.0%
same,GSD,"[3]; Example 4 blend, mean",1.6
same,Total recovered,"[3]; Example 4 blend, mean",945 µg
same,amount in inhaler,"[3]; Example 4 blend, mean",495 µg
same,FPF,[3]; Example 5 blend,38%
same,FPD,[3]; [8],161.8 µg and 190.6 µg and 179.0 µg
same,FPF,[3]; [8],35.2% and 40.7%
same,GSD,[3]; [8],1.5 and 2.0
same,Total recovered,[3]; [8],990 µg and 882 µg and 904 µg
same,amount in inhaler,[3]; [8],530 µg and 413 µg and 431 µg
same,MMAD,[3]; Example 5 blend,3.9 μm
same,MMAD,[3]; [8],3.9 μm and 4.0 μm and 3.8 μm
same,amount in ACI,[3]; [8],459 µg and 468 µg and 472 µg
same,amount in ACI,"[3]; Example 5 blend, mean",467 µg
same,FPD,"[3]; Example 5 blend, mean",177.1 µg
same,FPF,"[3]; Example 5 blend, mean",37.9%
same,GSD,"[3]; Example 5 blend, mean",1.7
same,Total recovered,"[3]; Example 5 blend, mean",925 µg
same,amount in inhaler,"[3]; Example 5 blend, mean",458 µg
